Patent US9370189B2, “Controlling Pseudomonas aeruginosa persister cells with GM-CSF” (priority 2012, dated 2016)

What was measured:
[1] = test system: P. aeruginosa PAO1 biofilm; experiment: Effect of GM-CSF on 24-h PAO1 biofilm, alone and with antibiotic; format: cell-based, Pseudomonas aeruginosa
Procedure: This Example describes the treatment of biofilms made from P. aeruginosa PAO1, PDO300 and Escherichia coli K12, with GM-CSF introduced directly or together with an antibiotic to test the synergy.
In brief, after preparing an overnight culture, it was subcultured to an initial OD600 of 0.01 to a total volume of 20 mL M63 medium (for PAO1 and PDO300) or 20 ml LB medium (for E. coli K12) in a petri dish with 316L stainless steel coupons (1.75 cm×1 cm). The biofilm was grown for 24 h at 37° C. without shaking. After incubation, the coupons were washed by gently dipping in 0.85% NaCl twice using tweezers and were placed in new empty petri dishes.
To test the synergistic effects between GM-CSF (2.43 pg/mL or 0.17 pM) and antibiotics, a total of 8 coupons were analyzed. These 8 coupons were placed in 4 petri dishes (2 coupons in each dish). The two dishes were labeled as control and the other two as treatment samples. In the treatment samples, GM-CSF was added to 20 mL of 0.85% NaCl to a concentration of 2.43 pg/mL (or 0.17 pM). The control samples were supplemented with the same amount of PBS and BSA as present in the samples with 2.43 pg/ml (or 0.17 pM) GM-CSF. The coupons were incubated at 37° C. for 2 h.
After incubation, a control dish and a treatment dish was selected for studying the killing effect of 2.43 pg/ml GM-CSF on biofilm cells. Each coupon after gentle washing with 0.85% NaCl buffer, was placed in a test tube with 3 mL 0.85% NaCl buffer in each. They were sonicated (B200, Sinosonic Industrial Co., Ltd., Taiwan) for 4 mins to release the biofilm cells in the buffer. After vortexing for 1 min, they were plated on LB agar plates using drop plate method. The CFU was counted after incubation at 37° C. for 24 h to count the total number of viable cells. Furthermore, the synergistic effect of antibiotics with GM-CSF was evaluated with additional 3.5 h treatment with antibiotic at 37° C. After incubation, drop plate method was performed and the CFU was counted to understand if there is a synergistic effect.

whole cells of E. coli = experiment: GM-CSF binding assay to bacterial whole cells (slot blot immunoblotting); parameters: species or system Escherichia coli; conditions: PBS, room temperature, 2 h, anti-rhGM-CSF immunoblot (FIG. 21)
Procedure: This Example describes experiments conducted to determine the capability of GM-CSF to bind to whole cells of P. aeruginosa and E. coli. In brief, bacteria harvested at stationary phases of growth were washed with PBS and adjusted to OD600 of 0.4 with PBS to ensure that an equal amount of cells was used for all GF-CSF binding tests. Suspensions of bacteria (10^6 CFU) were then incubated with and without different amount of recombinant human GM-CSF (rhGM-CSF, R&D systems) in a 40 μL volume at room temperature for 2 hours. After incubation, the cell suspension was centrifuged to separate supernatant (comprising buffer and unbound GM-CSF) and pellet (comprising cell and bound GM-CSF, if any), followed by the addition of 10 mM EDTA and boiling for 30 minutes to inactivate bacterial alkaline phosphatase activity. As control, PBS buffer with GM-CSF were processed in the similar manner. All the samples were then applied to Slot Blot (BioRad) for immunoblotting experiments. Anti-rhGMCSF developed in mice (Human GM-CSF MAb, Mouse IgG1, R&D system) was used as first antibody; Alkaline Phosphatase conjugated with Anti-mouse IgG was used to detect the binding of GM-CSF with BCIP/NBT (Promega) as substrates.

[2] = test system: planktonic cells of PDO300; experiment: Synergistic effect of GM-CSF, tobramycin and alginate lyase on planktonic cells of PDO300; format: cell-based, Pseudomonas aeruginosa
Excerpt: This Example describes the use of alginate lyase as an enzyme to break down the extra alginate in order to understand the effect of the presence of alginate in PDO300 on the GM-CSF and antibiotic treatment.
To improve the effects of GM-CSF and antibiotics on the alginate overproducing PDO300, alginate lyase was used as an enzyme to break down the extra alginate. Alginate lyase is an enzyme which depolymerizes the alginate polymer by […] reaction. The alginate lyase used in the experiment was alginate lyase from Flavobacterium sp. (Sigma, catalog no. A1603-100MG). The experimental method was similar as mentioned above for the combined effect of GM-CSF and antibiotic. The alginate lyase was added as 0.05 mg/mL.
In brief, the experiment was performed in exponential phase with an optical density at 600 nm (OD600) of 0.3 to 0.4. After preparing an overnight culture of the tested strain in 25 ml LB medium, a subculture was prepared with an OD600 of 0.01 in 50 mL LB medium. The subculture was incubated at 37° C. with shaking at 200 rpm for 3-4 h, till OD600 of 0.3 to 0.4 was reached. The exponential phase subculture was then divided equally into two centrifuge tubes. The subcultures were washed twice with 0.85% NaCl buffer by vortexing and then centrifuging at 4° C., 8000 rpm for 10 min each time. The washed subcultures were resuspended in 25 mL 0.85% NaCl buffer and vortexed gently for 1 min. One of the subculture was selected for isolation of persisters by adding 200 μg/mL ciprofloxacin. After adding the antibiotic, the subculture was incubated at 37° C. with shaking at 200 rpm for 3.5 h. The other subculture was used to quantify the total number of viable cells.
For testing the direct impact of GM-CSF on the total viable cells, 1 mL of the subculture was added in 24 microcentrifuge tubes; 12 were control and the other 12 were GM-CSF treatment samples. In the treatment samples, GM-CSF was added to a concentration of 2.43 pg/mL. The control samples were supplemented with the same concentration of PBS and BSA as present in 2.43 pg/mL GM-CSF samples. […]

Substance: GM-CSF: granulocyte macrophage-colony stimulating factor, a cytokine secreted by macrophages; recombinant human GM-CSF (R&D systems) in binding tests
- % change in avg. CFU/ml after adding factor + CIP ([1]; 24-h PAO1 biofilm, 2.43 pg/mL GM-CSF with 200 μg/mL ciprofloxacin): −23.8%
- % change in avg. CFU/ml after adding factor + TET ([1]; 24-h PAO1 biofilm, 2.43 pg/mL GM-CSF with 200 μg/mL tetracycline): −10.0%
- % change in avg. CFU/ml after adding factor + TOB ([1]; 24-h PAO1 biofilm, 2.43 pg/mL GM-CSF with 200 μg/mL tobramycin): −34.1%
- % change in avg. CFU/ml after adding factor + GEN ([1]; 24-h PAO1 biofilm, 2.43 pg/mL GM-CSF with 250 μg/mL gentamycin): −12.9%
- average CFU/ml of biofilm cells reduced by ([1]; reduction, PAO1 biofilm, 2.43 pg/mL GM-CSF alone, average of 2 experiments): 1.3%
- average CFU/mL of biofilm cells reduced by ([1]; reduction, PAO1 biofilm, 2.43 pg/mL GM-CSF in the presence of 200 μg/mL ciprofloxacin): 22.8%
- average CFU/mL of biofilm cells reduced by ([1]; reduction, PAO1 biofilm, 2.43 pg/mL GM-CSF in the presence of 200 μg/mL tetracycline): 7.5%
- average CFU/mL of biofilm cells reduced by ([1]; reduction, PAO1 biofilm, 2.43 pg/mL GM-CSF in the presence of 200 μg/mL tobramycin): 33.3%
- average CFU/mL of biofilm cells reduced by ([1]; reduction, PAO1 biofilm, 2.43 pg/mL GM-CSF in the presence of 250 μg/mL gentamicin): 10.5%
- binding to whole cells (whole cells of E. coli): not
- persisters changed by ([2]; planktonic PDO300, 2.43 pg/mL GM-CSF and 50 μg/mL tobramycin): −63.6±5.4%
- persisters changed by ([2]; planktonic PDO300, 2.43 pg/mL GM-CSF, 50 μg/mL tobramycin and 0.05 mg/mL Alginate lyase): −74.1±3.3%
- persisters changed by ([2]; planktonic cells (Example on PDO300; sentence prints PAO1), 2.43 pg/mL GM-CSF alone): −15.0±4.2%
